pEC50: −log10 of the molar value.

The subject of assay [1] is non-growing S. aureus DSM2569. The assay is described as follows: Dilution-regrowth assay (OD600, start-growth-time) on stationary-phase S. aureus. It is filed as cell-based, Staphylococcus aureus. Conditions: Staphylococcus aureus, DSM2569; S. aureus; regrowth delay of non-growing bacteria, 1:4 CA-MHB pH 7.4, 24 h treatment, OD600 8 h after dilution; read-out: EC50. In outline: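 Stationary-phase S. aureus cultures were grown and exposed to compound for 24 h in 1:4 CA-MHB (pH 7.4) at 37 °C in 96-well plates with 200 μl volume. After dilution into drug-free medium, regrowth was tracked in a plate reader at 37 °C with continuous shaking, reading OD600 every 20 min; EC50 came from five-parameter logistic fitting.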

For another assay, the system named is non-growing S. aureus. Briefly: Time-dependent effects of drug treatment on regrowth, S. aureus. The following applies: 10 µM, OD600 8 h after dilution. It is filed as cell-based, Staphylococcus aureus. How it is done:
For screening and concentration-dependent characterization of the hit compounds, we used a 24-h incubation to capture their effects, although the actual onset of their activity may occur much sooner. To assess the speed of action, we treated stationary-phase cultures of three organisms with compounds that had previously shown a strong regrowth delay at 10 µM. We selected compounds that, in earlier tests, strongly delayed regrowth, such that diluted cultures remained below an OD600 of 0.12 (indicating no growth) after 6 h for UPEC or 8 h for P. aeruginosa and S. aureus in drug-free medium.
We collected samples at different times during the 24-h incubation, diluted them 2500-fold, and measured the OD600 after 6 or 8 h of further incubation, respectively. […] Rifampicin acts quickly against non-growing S. aureus, while the effects of the other compounds increase gradually during incubation but are already apparent within the first hour of treatment.
Bacteria were cultivated in 1:4 diluted CA-MHB (40 mM HEPES, pH 7.4) for 24 h. Aliquots were dispensed into a 96-well plate, and compounds were added at a 10 µM concentration. […] The OD600 of the samples was measured to assess regrowth using a microplate reader (BioTek Synergy H1) after 6 h for UPEC and 8 h for P. aeruginosa and S. aureus. […]

Broadly, the pEC50 is −log10 of the EC50, conventionally taken in molar units. In the case of `CO[C@H]1/C=C/O[C@@]2(C)Oc3c(C)c(O)c4c(O)c(c(/C=N/N5CCN(C)CC5)c(O)c4c3C2=O)NC(=O)/C(C)=C\C=C\[C@H](C)[C@H](O)[C@@H](C)[C@@H](O)[C@@H](C)[C@H](OC(C)=O)[C@@H]1C` [Rifampicin], in assay [1], the negative logarithm of the EC50 (pEC50) is 7.37. In addition, the “speed of action: regrowth delay over treatment time” value in the assay on non-growing S. aureus is listed as “acts quickly”.

These data come from paper PMC11992225, “Antibacterial compounds against non-growing and intracellular bacteria” (npj Antimicrobials and Resistance, 2025).
